The results in this text go back to patent publication US10106556B2, “Heterocyclic compound” (TAKEDA PHARMACEUTICAL COMPANY LIMITED, priority 2015, dated 2018).

One may read the inhibition as the relative decrease from the control value, in per cent.

The target of one assay is T1, His-hMAGL (recombinant polyhistidine tagged human MAGL protein) (Homo sapiens, UniProt Q99685).
T1 construct: made in house; host or cells: E. coli BL21(DE3)
T1 sequence (Q99685 1-303): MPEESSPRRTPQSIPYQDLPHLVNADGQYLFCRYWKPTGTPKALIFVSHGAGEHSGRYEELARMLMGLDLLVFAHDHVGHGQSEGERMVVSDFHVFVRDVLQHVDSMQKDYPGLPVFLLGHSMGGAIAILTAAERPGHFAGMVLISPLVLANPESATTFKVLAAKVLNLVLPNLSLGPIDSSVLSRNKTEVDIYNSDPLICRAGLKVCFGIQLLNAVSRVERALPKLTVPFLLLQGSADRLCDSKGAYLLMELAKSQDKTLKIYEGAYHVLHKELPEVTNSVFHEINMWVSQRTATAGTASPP
The assay is described as follows: Measurement of MAGL inhibitory activity (arachidonic acid production from 2-arachidonylglycerol, RapidFire-mass spectrometry). It counts as biochemical. Particulars: MAGL inhibitory rate at 10 μM test compound; 60 min preincubation with His-hMAGL, 2-arachidonylglycerol substrate, 10 min reaction at room temperature. The procedure, abridged: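 Inhibition (%) was derived from arachidonic acid levels relative to enzyme-free and compound-free groups. Product was measured by online C4 solid-phase extraction and triple-quadrupole MS in negative SRM mode, corrected by arachidonic acid-d8 (3 μM in the acetonitrile added). Substrate was 2-arachidonylglycerol; enzyme was His-tagged recombinant human MAGL.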
Regarding `O=C1COc2cc(F)c(C(=O)N3CC(COc4ccc(F)c(F)c4)C3)cc2N1` [Example 158, 6-((3-((3,4-difluorophenoxy)methyl)azetidin-1-yl)carbonyl)-7-fluoro-2H-1,4-benzoxazin-3(4H)-one], the inhibition at 10 µM was found to be 103%.

For the molecule `Cc1nn(C)c(C)c1-c1cc(Cl)ccc1OCC1CN(C(=O)c2cc3c(cc2F)OCC(=O)N3)C1` [Example 267, 6-((3-((4-chloro-2-(1,3,5-trimethyl-1H-pyrazol-4-yl)phenoxy)methyl)azetidin-1-yl)carbonyl)-7-fluoro-2H-1,4-benzoxazin-3(4H)-one], the inhibition at 10 µM was found to be 101%.

Turning to `O=C1COc2cc(F)c(C(=O)N3CC(COc4ccc5cccnc5c4)C3)cc2N1` [Example 171, 7-fluoro-6-((3-((quinolin-7-yloxy)methyl)azetidin-1-yl)carbonyl)-2H-1,4-benzoxazin-3(4H)-one], the inhibition at 10 µM was determined as 98%.

On to `O=C1COc2cc(F)c(C(=O)N3CC(COc4ccc(C5=CCOCC5)cc4F)C3)cc2N1` [Example 244, 6-((3-((4-(3,6-dihydro-2H-pyran-4-yl)-2-fluorophenoxy)methyl)azetidin-1-yl)carbonyl)-7-fluoro-2H-1,4-benzoxazin-3(4H)-one], for which the inhibition at 10 µM was 100%.

For the molecule `O=C1COc2ccc(C(=O)N3CCC(COc4cc(Cl)ncc4Cl)CC3)cc2N1` [Example 47, 6-((4-(((2,5-dichloropyridin-4-yl)oxy)methyl)piperidin-1-yl)carbonyl)-2H-1,4-benzoxazin-3(4H)-one], the inhibition at 10 µM amounted to 98%.

As for `O=C1COc2cc(F)c(C(=O)N3CC(CC(F)(F)c4ccc(F)cc4Cl)C3)cc2N1` [Example 356, 6-((3-(2-(2-chloro-4-fluorophenyl)-2,2-difluoroethyl)azetidin-1-yl)carbonyl)-7-fluoro-2H-1,4-benzoxazin-3(4H)-one], the inhibition at 10 µM amounted to 102%.

Take `Cc1cc(-c2cc(Cl)ccc2OCC2CN(C(=O)c3cc4c(cc3F)OCC(=O)N4)C2)ccn1` [Example 193, 6-((3-((4-chloro-2-(2-methylpyridin-4-yl)phenoxy)methyl)azetidin-1-yl)carbonyl)-7-fluoro-2H-1,4-benzoxazin-3(4H)-one]: the inhibition at 10 µM turned out to be 102%.

As for `O=C1COc2cc(F)c(C(=O)N3CC(COc4ccc5nccn5c4-c4ccc(F)cc4)C3)cc2N1` [Example 181, 7-fluoro-6-((3-(((5-(4-fluorophenyl)imidazo[1,2-a]pyridin-6-yl)oxy)methyl)azetidin-1-yl)carbonyl)-2H-1,4-benzoxazin-3(4H)-one], the inhibition at 10 µM is 99%.

For the molecule `Cc1ccc(OCC2CN(C(=O)c3cc4c(cc3F)OCC(=O)N4)C2)c(Cl)c1` [Example 117, 6-((3-((2-chloro-4-methylphenoxy)methyl)azetidin-1-yl)carbonyl)-7-fluoro-2H-1,4-benzoxazin-3(4H)-one], the inhibition at 10 µM is 102%.

`O=C1COc2cc(F)c(C(=O)N3CC(OCc4ccc(F)cc4)C3)cc2N1` [Example 332, 7-fluoro-6-((3-((4-fluorobenzyl)oxy)azetidin-1-yl)carbonyl)-2H-1,4-benzoxazin-3(4H)-one]: the inhibition at 10 µM is 98%.

Consider `Cc1nccc(-c2ccccn2)c1OCC1CN(C(=O)c2cc3c(cc2F)OCC(=O)N3)C1` [Example 177, 7-fluoro-6-((3-(((2′-methyl-2,4′-bipyridin-3′-yl)oxy)methyl)azetidin-1-yl)carbonyl)-2H-1,4-benzoxazin-3(4H)-one], for which the inhibition at 10 µM is 91%.

In the case of `COc1ccc(COC2CN(C(=O)c3cc4c(cc3F)OCC(=O)N4)C2)cc1F` [Example 348, 7-fluoro-6-((3-((3-fluoro-4-methoxybenzyl)oxy)azetidin-1-yl)carbonyl)-2H-1,4-benzoxazin-3(4H)-one], the inhibition at 10 µM came out at 100%.

Take `O=C1COc2cc(F)c(C(=O)N3CC(COc4ccc(Br)cc4F)C3)cc2N1` [Example 194, 6-((3-((4-bromo-2-fluorophenoxy)methyl)azetidin-1-yl)carbonyl)-7-fluoro-2H-1,4-benzoxazin-3(4H)-one]: the inhibition at 10 µM is 103%.

Take `CC1(COc2ccc(F)cc2Cl)CN(C(=O)c2cc3c(cc2F)OCC(=O)N3)C1` [Example 283, 6-((3-((2-chloro-4-fluorophenoxy)methyl)-3-methylazetidin-1-yl)carbonyl)-7-fluoro-2H-1,4-benzoxazin-3(4H)-one]: the inhibition at 10 µM amounted to 101%.

Take `O=C1COc2cc(F)c(C(=O)N3CC(COc4ccc(Cl)cc4-c4ccnc(Cl)c4)C3)cc2N1` [Example 208, 6-((3-((4-chloro-2-(2-chloropyridin-4-yl)phenoxy)methyl)azetidin-1-yl)carbonyl)-7-fluoro-2H-1,4-benzoxazin-3(4H)-one]: the inhibition at 10 µM is 98%.

Take `N#Cc1ccc(OCC2CN(C(=O)c3cc4c(cc3F)OCC(=O)N4)C2)c(Cl)c1` [Example 92, 3-chloro-4-((1-((7-fluoro-3-oxo-3,4-dihydro-2H-1,4-benzoxazin-6-yl)carbonyl)azetidin-3-yl)methoxy)benzonitrile]: the inhibition at 10 µM was determined as 99%.

Turning to `O=C1COc2cc(F)c(C(=O)N3CC(COc4ccc(F)c(Cl)c4)C3)cc2N1` [Example 131, 6-((3-((3-chloro-4-fluorophenoxy)methyl)azetidin-1-yl)carbonyl)-7-fluoro-2H-1,4-benzoxazin-3(4H)-one], the inhibition at 10 µM was 101%.

As to `O=C1COc2cc(F)c(C(=O)N3CC(COc4cccc(Cl)c4Cl)C3)cc2N1` [Example 123, 6-((3-((2,3-dichlorophenoxy)methyl)azetidin-1-yl)carbonyl)-7-fluoro-2H-1,4-benzoxazin-3(4H)-one], the inhibition at 10 µM worked out at 102%.

Consider `N#Cc1cc(C(F)(F)F)ccc1OCC1CCN(C(=O)c2ccc3c(c2)NC(=O)CO3)CC1` [Example 67], for which the inhibition at 10 µM stood at 101%.

In the case of `Cc1cc2c(cc1C(=O)N1CCC(COc3ccc(F)cc3Cl)CC1)NC(=O)CO2` [Example 89, 6-((4-((2-chloro-4-fluorophenoxy)methyl)piperidin-1-yl)carbonyl)-7-methyl-2H-1,4-benzoxazin-3(4H)-one], the inhibition at 10 µM came to 90%.

As to `O=C1COc2ncc(C(=O)N3CCC(COc4cc(F)ccc4Cl)CC3)cc2N1` [Example 21, 7-((4-((2-chloro-5-fluorophenoxy)methyl)piperidin-1-yl)carbonyl)-1H-pyrido[2,3-b][1,4]oxazin-2(3H)-one], the inhibition at 10 µM is 99%.

Take `O=C1COc2ccc(C(=O)N3CCC(COc4cc(F)ccc4Cl)CC3)cc2N1` [Example 31, 6-((4-((2-chloro-5-fluorophenoxy)methyl)piperidin-1-yl)carbonyl)-2H-1,4-benzoxazin-3(4H)-one]: the inhibition at 10 µM is 97%.

Take `O=C1COc2ccc(C(=O)N3CCC(COc4nc5ccccc5s4)CC3)cc2N1` [Example 62, 6-((4-((1,3-benzothiazol-2-yloxy)methyl)piperidin-1-yl)carbonyl)-2H-1,4-benzoxazin-3(4H)-one]: the inhibition at 10 µM came to 86%.

For the molecule `Cc1cc(C)c(OCC2CCN(C(=O)c3ccc4c(c3)NC(=O)CO4)CC2)cn1` [Example 39], the inhibition at 10 µM turned out to be 100%.

For `CC(=O)n1ncc2c(OCC3CCN(C(=O)c4ccc5c(c4)NC(=O)CO5)CC3)cccc21` [Example 63, 6-((4-(((1-acetyl-1H-indazol-4-yl)oxy)methyl)piperidin-1-yl)carbonyl)-2H-1,4-benzoxazin-3(4H)-one], the inhibition at 10 µM was determined as 93%.

In the case of `O=C1COc2cc(F)c(C(=O)N3CC(OCc4ccccc4OC(F)F)C3)cc2N1` [Example 341], the inhibition at 10 µM was 101%.

As to `O=C1COc2cc(F)c(C(=O)N3CCC(O)(COc4ccc(F)cc4Cl)CC3)cc2N1` [Example 73, 6-((4-((2-chloro-4-fluorophenoxy)methyl)-4-hydroxypiperidin-1-yl)carbonyl)-7-fluoro-2H-1,4-benzoxazin-3(4H)-one], the inhibition at 10 µM stood at 102%.

For `N#Cc1cc(Cl)ccc1OCC1CCN(C(=O)c2ccc3c(c2)NC(=O)CO3)CC1` [Example 33, 5-chloro-2-((1-((3-oxo-3,4-dihydro-2H-1,4-benzoxazin-6-yl)carbonyl)piperidin-4-yl)methoxy)benzonitrile], the inhibition at 10 µM is 99%.

Turning to `O=C1COc2cc(F)c(C(=O)N3CC(COc4ccc(Cl)cc4F)C3)cc2N1` [Example 126, 6-((3-((4-chloro-2-fluorophenoxy)methyl)azetidin-1-yl)carbonyl)-7-fluoro-2H-1,4-benzoxazin-3(4H)-one], the inhibition at 10 µM stood at 102%.

Take `O=C1COc2cc(F)c(C(=O)N3CC(OCc4ccc5c(c4)CCCC5)C3)cc2N1` [Example 346, 7-fluoro-6-((3-(5,6,7,8-tetrahydronaphthalen-2-ylmethoxy)azetidin-1-yl)carbonyl)-2H-1,4-benzoxazin-3(4H)-one]: the inhibition at 10 µM came out at 101%.

`O=C1COc2cc(F)c(C(=O)N3CC(OCc4cccc(Cl)c4)C3)cc2N1` [Example 336, 6-((3-((3-chlorobenzyl)oxy)azetidin-1-yl)carbonyl)-7-fluoro-2H-1,4-benzoxazin-3(4H)-one]: the inhibition at 10 µM worked out at 101%.

Staying with this assay, now noted: MAGL inhibitory rate at 10 μM test compound; 60 min preincubation with His-hMAGL, 2-arachidonylglycerol substrate, 10 min reaction at room temperature; 10 µM.
Consider `CC(Oc1ccc(F)cc1Cl)C1CCN(C(=O)c2cc3c(cc2F)OCC(=O)N3)CC1` (centres unmarked) [Example 296, 6-((4-(1-(2-chloro-4-fluorophenoxy)ethyl)piperidin-1-yl)carbonyl)-7-fluoro-2H-1,4-benzoxazin-3(4H)-one], for which the “% inhibition (10 μM)” value was 101%.
